Measured values as given in patent US6440680B1, “Methods of identifying modulators of prostaglandin receptor EP1” (Merck Frosst Canada, Inc., priority 1993, dated 2002).
Values belong to the compound of their own block, whether it stands above or below them.

Assays:
EP1 receptor [1] = target: T1, EP1 receptor (Homo sapiens, UniProt P34995, A71T/L230H); experiment: [3H]PGE2 binding assay with membranes of pcDNA-EP1-transfected COS-M6 cells; parameters: expressed in transfected cells; host or cells: COS-M6 cells (membrane fraction); conditions: for IC50: 0.5 nM [3H]PGE2, FIG. 3B, read-out: IC50 for competition for [3H]PGE2 specific binding; for rank order of potency for competition for [3H]PGE2 specific binding: FIG. 3A, 0.03 nM-10 μM competitor
T1 sequence (P34995 1-402 A71T/L230H): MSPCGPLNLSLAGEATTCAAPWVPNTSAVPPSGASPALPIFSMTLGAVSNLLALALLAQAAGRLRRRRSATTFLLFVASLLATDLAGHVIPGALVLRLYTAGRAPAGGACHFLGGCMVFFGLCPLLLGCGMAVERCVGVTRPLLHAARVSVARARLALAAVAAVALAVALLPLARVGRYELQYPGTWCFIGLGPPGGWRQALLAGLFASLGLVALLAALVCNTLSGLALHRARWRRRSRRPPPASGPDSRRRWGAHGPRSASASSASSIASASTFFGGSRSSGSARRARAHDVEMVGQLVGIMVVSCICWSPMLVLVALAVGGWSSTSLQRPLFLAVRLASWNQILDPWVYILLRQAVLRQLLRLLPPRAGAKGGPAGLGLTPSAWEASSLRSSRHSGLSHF
Description: FIGS. 3A-3B—Competition for [^3H]PGE2 binding to pcDNA-EP1-transfected COS-M6 membranes: [^3H]PGE2 binding assays were performed as described in the Methods in the presence of Panel A: 0.03 nM-10 μM PGE2 (Δ), PGE1 (▪), PGF2α (□), PGD2 (●), Panel B: 3 nM-100 μM AH6809 (◯), SC19220 (Δ), and Butaprost (⋄). Butaprost and AH 6809 were generous gifts from Miles Inc. and Glaxo Group Research Ltd.
The pcDNA-EP1 plasmid was transfected into COS-M6 Cells using the DEAE-dextran method. The cells were maintained in culture for 72 h, then harvested and membranes prepared by differential centrifugation (1000×g or 10 min, then 100,000×g for 30 min) following lysis of the cells by nitrogen cavitation (Frey, et al., 1993). [3H]Prostaglandin E2 ([^3H]PGE2) binding assays were performed in 10 mM potassium phosphate (pH 6.0), containing 1 mM EDTA, 0.5 nM [^3H]PGE2 (154 Ci/mmol; DuPont-New England Nuclear) and 60-100 μg of protein from the 100,000×g membrane fraction. Incubations were conducted for 1 h at room temperature prior to separation of the bound and free radioligand by rapid filtration as previously described (Frey et al., 1993 Eur. J. Mol. Pharmacol., 244, pp 239-250). Residual [3H]PGE2 bound to the filter was quantitated by liquid scintillation counting. Specific binding was defined as the difference between total binding and non-specific binding, determined in the presence of 1 μM PGE2.

EP1 receptor [2] = target: T1, EP1 receptor; experiment: Electrophysiological assay (Ca2+-dependent Cl- current) in pcDNA-EP1-injected Xenopus oocytes; type: cell-based; conditions: bath perfusion of 1 μM PGE2, voltage clamped at -60 mV
Description: (§1) FIG. 4A-E—Expression of prostaglandin E2 receptor in Xenopus oocytes. Panel A: An inward Ca^2—dependent Cl^− current (shown as downward deflection) evoked by bath perfusion of 1 μM PGE2. The oocyte was injected with 5 ng of pcDNA-EP1 (Bam) and voltage-clamped at −60 mV. Panel B-D: PGE2-induced light responses in aequorin loaded oocytes. The intensity of aequorin light emission is expressed in relative units and the background emission typically was 0.5-0.7 units units. The PGE2 was injected into the recording cuvette at 10 s at a final concentration indicated on each trace Panel E; Light responses were evoked by different concentrations of PGE2 and PGF2α. Each bar represents the mean±s.e.m. of data from 10 to 15 oocytes from 4 donors. Data are expressed as the percentage of the response observed with 1 μM of PGE2.
Oocytes were taken from adult females of Xenopus laevis using standard surgical procedure (Colman, A., 1984 In: Transcription and Translation—A Practical Approach, IRL Press). […] Functional activity was determined by measurement of either agonist-induced Ca^2+-dependent Cl^− current or light emission in oocytes injected with the Ca^2+-specific photoprotein aequorin (J. Blinks, Friday Harbor Photoproteins, Washington), (Giladi and Spindel 1991 Biotechniques, 10, pp 744-747). […] Ligand-containing solution was perfused and the current response was recorded. […]

EP1 receptor [3] = target: T1, EP1 receptor; experiment: Aequorin luminescence assay in pcDNA-EP1-injected Xenopus oocytes; type: cell-based; conditions: for agonist potency from dose-response of aequorin light emission: aequorin-loaded oocytes, FIG. 4E
Description: as §1
Oocytes were taken from adult females of Xenopus laevis using standard surgical procedure (Colman, A., 1984 In: Transcription and Translation—A Practical Approach, IRL Press). To remove follicle cells, oocytes were treated for 2-3 h with freshly made collagenase (2 mg/ml, type 2, Worthington Biochemical Corp., Freehold, N.J.) in Ca^2+-free ND96 solution (ND96 in mM: NaCl 96, KCl 2, MgCl2 1, HEPES 5, Na-pyruvate 2.5, theophylline 0.5, gentamicin […], +1.8 CaCl2, pH 7.6). […] Functional activity was determined by measurement of either agonist-induced Ca^2+-dependent Cl^− current or light emission in oocytes injected with the Ca^2+-specific photoprotein aequorin (J. Blinks, Friday Harbor Photoproteins, Washington), (Giladi and Spindel 1991 Biotechniques, 10, pp 744-747). […] Ligand-containing solution was perfused and the current response was recorded. For the luminometric assay, aequorin-loaded oocytes (100 ng/ooctye) were placed individually in cuvettes containing 0.4 ml ND96 and the light emission provoked by ligand addition was recorded using a Bio-Orbit 1251 luminometer (Fisher Sci. Ltd.).
Functional activity was determined in pcDNA-EP1-injected oocytes using electrophysiological and aequorin luminescence assays. […]

thromboxane receptor = target: T2, thromboxane receptor (Homo sapiens, UniProt P21731); experiment: Binding of SQ-29548 in human embryonic kidney 293 cells and membranes transfected with thromboxane-receptor cDNA
T2 construct: use of Vent polymerase (New England Biolabs) enabled amplification of the complete cDNA; expressed in transfected cells; host or cells: human embryonic kidney 293 cells and membranes
T2 sequence (P21731 1-343): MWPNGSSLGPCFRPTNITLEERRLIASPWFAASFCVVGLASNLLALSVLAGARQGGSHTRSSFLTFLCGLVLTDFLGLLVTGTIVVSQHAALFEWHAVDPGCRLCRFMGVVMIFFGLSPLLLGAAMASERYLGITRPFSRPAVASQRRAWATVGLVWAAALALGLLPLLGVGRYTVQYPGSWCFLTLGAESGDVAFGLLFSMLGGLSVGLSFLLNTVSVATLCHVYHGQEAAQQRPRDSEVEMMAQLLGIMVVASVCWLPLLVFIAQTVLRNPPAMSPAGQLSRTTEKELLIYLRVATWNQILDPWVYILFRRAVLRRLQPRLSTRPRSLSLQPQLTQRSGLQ
Description: The thromboxane receptor has been expressed in Xenopus oocytes. It can couple with endogenous signal transduction components to elicit a calcium-activated Cl^− current recorded by electrophysiological measurement using the procedure described by Hirata, M. et al., (1991), Nature, 349, pp. 617. Binding studies have been performed with COS-1 cell membranes transfected by thromboxane receptor cDNA using the ligand S-145 (Hirata, M. et al., (1991), Nature, 349, pp. 617). […] This level of expression is at least 5-10 times higher than in platelet membranes. On a per-cell basis assuming a 10% transfection efficiency, we estimate ≈10^6 binding sites/tranfected cell as compared to ≈1300 sites present on a platelet (Hourani, S. M. O. et al., (1991), Pharmacol. Rev., 43, pp. 243).

Structure (SMILES): CC(C)Oc1ccc2c(=O)c3cc(C(=O)O)ccc3oc2c1 [AH 6809]
IC50 (EP1 receptor [1]): ~0.5 µM

Structure (SMILES): CCCCC[C@H](O)/C=C/[C@H]1[C@H](O)CC(=O)[C@@H]1C/C=C\CCCC(=O)O [PGE2]
rank order of potency for competition for [3H]PGE2 specific binding (EP1 receptor [1]): PGE2>PGE1>PGF2α>>PGD2
Ca2+-dependent Cl- current response (EP1 receptor [2]): prominent current responses
agonist potency from dose-response of aequorin light emission (EP1 receptor [3]): more potent agonist of the expressed receptor when compared to PGF2α
intracellular calcium in pcDNA-EP1 injected oocytes (EP1 receptor [3]; oocytes challenged with PGE2): dose-dependent increase in intracellular calcium

Structure (SMILES): CCCCC[C@H](O)/C=C/[C@H]1[C@H](O)CC(=O)[C@@H]1C/C=C\CCCC(=O)O [[^3H]PGE2, [3H]Prostaglandin E2]
maximum number of specific binding sites (Bmax) (EP1 receptor [1]; Scatchard analysis, pcDNA-EP1 transfected COS-M6 cell membranes): approximately 360 fmol/mg of protein
Kd (EP1 receptor [1]; Scatchard analysis, pcDNA-EP1 transfected COS-M6 cell membranes, read-out: equilibrium dissociation constant (KD)): 0.001 µM

Structure (SMILES): CCCC1([C@H](O)C/C=C/[C@H]2[C@H](O)CC(=O)[C@@H]2CCCCCCC(=O)OC)CCC1 [butaprost]
IC50 (EP1 receptor [1]): 50 µM
activity at the [3H]PGE2 specific binding sites (EP1 receptor [1]; FIG. 3B): relatively inactive

Second part, led by results:

rank order of potency for competition for [3H]PGE2 specific binding (EP1 receptor [1]): PGE2>PGE1>PGF2α>>PGD2
Structure (SMILES): CCCCC[C@H](O)/C=C/[C@H]1C(=O)C[C@H](O)[C@@H]1C/C=C\CCCC(=O)O [PGD2]

rank order of potency for competition for [3H]PGE2 specific binding (EP1 receptor [1]): PGE2>PGE1>PGF2α>>PGD2
Structure (SMILES): CCCCC[C@H](O)/C=C/[C@H]1[C@H](O)CC(=O)[C@@H]1CCCCCCC(=O)O [PGE1]

rank order of potency for competition for [3H]PGE2 specific binding (EP1 receptor [1]): PGE2>PGE1>PGF2α>>PGD2
Structure (SMILES): CCCCC[C@H](O)/C=C/[C@@H]1[C@@H](C/C=C\CCCC(=O)O)[C@@H](O)C[C@H]1O [PGF2α]
agonist potency from dose-response of aequorin light emission (EP1 receptor [3]): PGE2 was more potent agonist of the expressed receptor when compared to PGF2α

IC50 (EP1 receptor [1]): ~6.7 µM
Structure (SMILES): CC(=O)NNC(=O)N1Cc2ccccc2Oc2ccc(Cl)cc21 [SC 19220]

binding affinity (thromboxane receptor): high affinity binding
maximal binding (thromboxane receptor): 2-3 pmol/mg protein
Structure (SMILES): O=C(O)CCC/C=C\C[C@@H]1[C@H](CNNC(=O)Nc2ccccc2)[C@H]2CC[C@@H]1O2 [SQ-29548]
